Holding throughout (assay): DTP human tumour cell line panel, 48 h
For assay [1], the system named is HCT-15 colon.
Assay [2] relates to MALME-3M melanoma.
Assay [3] deals with A549 NSCLC.
Assay [4] has as its system SK-MEL-2 melanoma.
For assay [5], the system named is HCC-2998 colon.
Assay [6] has as its system SF-295 CNS.
Assay [7] has as its system 786-0 renal.
The test system of assay [8] is SR leukemia.

Several values for one entry are separate records, joined by “and”; a condition that tells them apart may be missing. Identical values can stand only once.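 In this assay, cells in 96-well plates receive the compound at five concentrations for 48 hours. Endpoints are linearly interpolated between the surrounding concentrations. Abbreviation: GI50, concentration required for 50% inhibition of growth. TGI is the concentration that stops growth completely.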

Experimental findings from PubChem BioAssay (NCI) are described below.

Turning to `C/C(=N\NC(=S)N1CCN(c2ccccn2)CC1)c1cccc2cccnc12`, the TGI in assay [1] was above 100 µM; in assay [2], above 100 µM; in assay [3], above 100 µM; in assay [4], 8.56 µM; in assay [5] it was above 58.9 µM; in assay [6], 55.8 µM. Further, the TGI is above 100 µM in assay [7] and above 38.7 µM in assay [8].

On to `Oc1ccc(/C=N/NC(=S)Nc2cccnc2)nc1`, for which the TGI is above 100 µM in assay [1]; 9.12 µM in assay [2]; above 100 µM in assay [3]; above 100 µM in assay [4]; above 100 µM in assay [5]; above 75.6 µM in assay [6]. The figures for the TGI in assay [7] and in assay [8] were above 73.5 µM and 0.807 µM, respectively.

Turning to `COc1ccc2nc3ccccc3c(NCc3ccccc3)c2c1`, the GI50 in assay [1] is 1.83 µM; in assay [2] it was 1.75 µM; in assay [3] it was 1.87 µM; in assay [4], 2.2 µM; in assay [5], 1.86 µM; in assay [6], 2.13 µM. In addition, the GI50 in assay [7] is 1.8 µM; in assay [8], 1.38 µM. The TGI was 4.46 µM in assay [1]; 3.22 µM in assay [2]; 4.19 µM in assay [3]; 4.9 µM in assay [4]; 3.77 µM in assay [5]; 5.86 µM in assay [6]. The TGI came out at 3.38 µM in assay [7] and 4.51 µM in assay [8].

For the molecule `Nc1no[n+]([O-])c1-c1nnc2c(n1)-c1ccccc1C2=O`, the GI50 is 1.83 µM in assay [1]; 1.74 µM in assay [2]; 5.44 µM in assay [3]; 9.13 µM in assay [4]; 13 µM in assay [5]; 12.5 µM in assay [6]. Besides, the GI50 in assay [7] was 4.3 µM; in assay [8] it was 2.48 µM. Moreover, the TGI in assay [1] was 3.91 µM; in assay [2], 3.45 µM; in assay [3], 20.3 µM; in assay [4], 24.4 µM; in assay [5], 26.8 µM; in assay [6], 34.3 µM. Also, the TGI in assay [7] was determined as 16.8 µM.

For `NCCCNc1nc2ccccc2c2c(=O)c3cc(F)cc(Cl)c3sc12`, the GI50 in assay [1] was 1.57 µM; in assay [2], 1.68 µM; in assay [3], 1.8 µM; in assay [4], 8.86 µM; in assay [5], 1.79 µM; in assay [6], 1.75 µM. Further, the values for the GI50 in assay [7] and in assay [8] were 1.45 µM and 1.19 µM, respectively. Also, the TGI in assay [1] was found to be 3.01 µM; in assay [2] it was 3.32 µM; in assay [3], 3.55 µM; in assay [4], 24 µM; in assay [5], 3.68 µM; in assay [6] it was 3.2 µM. In addition, the TGI in assay [7] was found to be 2.9 µM; in assay [8] it was 4.04 µM.

`NC(Cc1c[nH]c2cccc(F)c12)C(=O)O` (centres undefined): the GI50 in assay [1] was 61.6 µM and 266 µM; in assay [2] it was 2600 µM; in assay [3], 98.7 µM and 679 µM; in assay [5], 73.2 µM and 694 µM; in assay [6], 39.5 µM and 176 µM; in assay [7], 124 µM. For the same molecule, the TGI is 2870 µM in assay [1]; above 4500 µM in assay [2]; above 4500 µM in assay [3]; above 4500 µM in assay [4]; 2400 µM in assay [5]; 1190 µM in assay [6]. The TGI in assay [7] is 894 µM; in assay [8], above 4500 µM.

With `NS(=O)(=O)c1cc(C(=O)O)c(Cl)c([N+](=O)[O-])c1Cl`, the TGI in assay [1], in assay [2], in assay [3], in assay [4], in assay [5] and in assay [6] was above 100 µM in each case. Also, the TGI in assay [7] and in assay [8] was above 100 µM in each case.

Regarding `C=CCN1C(=O)[C@]2(SC1=S)[C@H](c1cccc(Cl)c1)CN(C)[C@]21C(=O)NC2C=CC(Cl)=C[C@H]21` (some centres undefined), the GI50 in assay [1] is 2.89 µM; in assay [2], 2.88 µM; in assay [3] it was 3.3 µM; in assay [4] it was 8.13 µM; in assay [5], 5.05 µM; in assay [6] it was 7.29 µM. The GI50 was 1.51 µM in assay [7] and 1.68 µM in assay [8]. Further, the TGI in assay [1] is 13.1 µM; in assay [2], 12.7 µM; in assay [3], 12.9 µM; in assay [4], 24.2 µM; in assay [5], 19.1 µM; in assay [6], 21.4 µM. Also, the TGI in assay [7] turned out to be 3.48 µM; in assay [8], 4.48 µM.

Turning to `COC(=O)[C@H](CCCCNC(=O)OCc1ccccc1)NC(=O)[C@@H](NC(=O)Nc1cc(C(F)(F)F)cc(C(F)(F)F)c1)C(C)C`, the GI50 in assay [1], in assay [2], in assay [3], in assay [4], in assay [5] and in assay [6] was above 10 µM each time. For the same molecule, the GI50 in assay [7] and in assay [8] was above 10 µM each time. The total growth inhibition concentration (TGI) in assay [1], in assay [2], in assay [3], in assay [4], in assay [5] and in assay [6] was above 10 µM each time. For the same molecule, the TGI in assay [7] and in assay [8] was above 10 µM each time.

For `C=C1C(=O)O[C@H]2[C@H]1CC/C(COC(=O)N[C@H](Cc1c[nH]c3ccccc13)C(=O)OC)=C\CC[C@@]1(C)O[C@@H]21`, the GI50 in assay [1] was 1.53 µM; in assay [2], 1.95 µM; in assay [3] it was 14.9 µM; in assay [4] it was 7.21 µM; in assay [5], 2.25 µM; in assay [6], 10.7 µM. For the same molecule, the GI50 in assay [7] is 1.28 µM; in assay [8] it was 2.58 µM. Further, the TGI was 3.43 µM in assay [1]; 4.24 µM in assay [2]; 32.7 µM in assay [3]; 23.8 µM in assay [4]; 4.6 µM in assay [5]; 22.7 µM in assay [6]. For the same molecule, the concentration for total growth inhibition (TGI) in assay [7] is 2.95 µM; in assay [8] it was 10.5 µM.

For the molecule `COc1cccc(-c2nn(-c3ccccc3)cc2-c2ccnc(NCCCNS(=O)(=O)c3ccc(C(F)(F)F)cc3)c2)c1`, the GI50 was 4.08 µM in assay [1]; 3.4 µM in assay [2]; 6.65 µM in assay [3]; 2.84 µM in assay [4]; 5.22 µM in assay [5]; 3.17 µM in assay [6]. Further, the figures for the GI50 in assay [7] and in assay [8] were 4.6 µM and 1.67 µM, respectively. The TGI in assay [1] is above 100 µM; in assay [2], above 100 µM; in assay [3], above 100 µM; in assay [4] it was 12.4 µM; in assay [5] it was above 100 µM; in assay [6], above 100 µM. For the same molecule, the TGI in assay [7] is above 100 µM; in assay [8] it was 4.84 µM.
